pIC50: −log10 of the molar value. Values joined by “and” are separate entries in the source; they are usually repeats but may differ in a detail not shown here. Identical values can stand only once.
Columns and labels:
[1] = target: N-type calcium channel (NTCC) (Homo sapiens, UniProt Q00975); assay: FLIPR calcium mobilization assay for N-type calcium channel (differentiated IMR32 cells); format: cell-based; design: endogenous in cells; host or cells: IMR32 cells (ATCC), differentiated 8 days with dibutyryl cAMP and bromodeoxyuridine; settings: calcium mobilization in vitro assay; N-type calcium channel block
Description: Cell maintenance and differentiation. Unless noted otherwise, cell culture reagents were purchased from Mediatech of Herndon, Md. IMR32 cells (American Type Culture Collection, ATCC, Manassas, Va.) were routinely cultured in growth medium consisting of minimum essential medium containing 10% fetal bovine serum (FBS, Hyclone, Logan, Utah), 100 U/mL penicillin, 100 μg/mL streptomycin, 2 mM L-glutamine, 1 mM sodium pyruvate, and 1×MEM non-essential amino acids. 80-90% confluent flasks of cells were differentiated using the following differentiation medium: Growth medium plus 1 mM dibutyryl cyclic AMP (Sigma, St. Louis, Mo.), and 2.5 μM bromodeoxyuridine (Sigma). Cells were differentiated for 8 days by replacing differentiation medium every 2-3 days.
FLIPR Calcium Mobilization Assay for N-type Calcium Channel. One day prior to performing this assay, differentiated IMR32 cells were treated with 1×
CellStripper, and seeded on poly-D-lysine-coated 96-well clear-bottom black plates (Becton Dickinson, Franklin Lakes, N.J.) at 200,000 cells/well. On the day of the assay, the cell plates were washed with IMR32 buffer (127 mM NaCl, 1 mM KCl, 2 mM MgCl2, 700 μM NaH2PO4, 5 mM CaCl2, 5 mM NaHCO3, 8 mM HEPES, 10 mM glucose, pH 7.4), then pre-stimulated with KCl and loaded as follows: 0.05 mL of IMR32 buffer, 0.05 mL of each compound tested diluted in IMR32 buffer containing 20 μM nitrendipine (Sigma), and 0.1 mL KCl dissolved in IMR32 buffer, plus Fluo-4 were added (3 μM final concentration, Molecular Probes, Eugene, Oreg.). Final test compound concentrations ranged from about 846 pM to about 17 μM, final nitrendipine concentration was 5 μM, and final KCl concentration was 90 mM. After 1 hour, the cells were washed twice with 0.05 mL of each compound tested in nitrendipine-containing IMR32 buffer (no KCl or Fluo-4), and then replaced with 0.1 mL of each compound tested in nitrendipine-containing IMR32 buffer. Plates were then transferred to a Fluorimetric Imaging Plate Reader (FLIPR^96, Molecular Devices, Inc., Sunnyvale, Calif.) for assay. The FLIPR measured basal Fluo-4 fluorescence for 315 seconds (i.e., 5 minutes and 15 seconds), then added 0.1 mL KCl agonist dissolved in IMR32 buffer and measured fluorescence for another 45 seconds. Final test compound concentrations on the cells after FLIPR read ranged from about 846 pM to about 17 μM, final nitrendipine concentration was 5 μM, and final KCl concentration was 90 mM. Data were collected over the entire time course and analyzed using Excel, Graph Pad Prism (version 3.02, Graph Pad, San Diego, Calif.), or an in-house non-linear regression analysis software.

[2] = target: T1, L-type calcium channel (LTCC) (Rattus norvegicus, UniProt P22002); assay: FLIPR calcium mobilization assay for L-type calcium channel (HEK293 cells expressing recombinant rat LTCC subunits, or alternatively differentiated A7r5 cells); format: cell-based; settings: calcium mobilization in vitro assay; L-type calcium channel block
T1 construct: The 6.5 kb cDNA encoding the L-type calcium channel α1c subunit was cloned by PCR amplification from rat heart cDNA; expressed in transfected cells; host or cells: HEK293 (ATCC), stably transfected
Description: A7r5 (ATCC) cells were maintained and routinely cultured in A7r5 growth medium consisting of Dulbecco's Modified Eagles Medium containing 10% FBS, 100 U/mL penicillin, 100 μg/mL streptomycin, 4 mM L-glutamine, and 0.15% sodium bicarbonate. 80-90% confluent flasks of cells were differentiated using the following differentiation medium: A7r5 Growth Medium plus 1 mM dibutyryl cyclic AMP (Sigma). Cells were differentiated for 8 days by replacing differentiation medium every 2-3 days.
FLIPR Calcium Mobilization Assay for L-type Calcium Channel. One day prior to performing this assay, HEK293 cells stably expressing recombinant rat L-type calcium channel (LTCC) subunits (α1c, α2δ, and β1) are trypsinized, then seeded on poly-D-lysine-coated 96-well clear-bottom black plates (Becton Dickinson, Franklin Lakes, N.J.) at 75,000 cells/well. On the day of the assay, the plates are washed with LTCC wash buffer (127 mM NaCl, 2 mM MgCl2, 700 μM NaH2PO4, 5 mM CaCl2, 5 mM NaHCO3, 8 mM HEPES, 10 mM glucose, pH 7.4), then loaded with 0.1 mL of LTCC wash buffer containing Fluo-4 (3 μM final concentration, Molecular Probes, Eugene, Oreg.). After 1 hour, the cells are washed with 0.1 mL LTCC wash buffer and resuspended in 0.05 mL LTCC assay buffer (same composition as LTCC wash buffer). Plates are then transferred to a FLIPR^96 for assay. The FLIPR measures basal Fluo-4 fluorescence for 15 seconds, then adds 0.05 mL of each compound tested diluted in LTCC assay buffer at final concentrations ranging from about 846 pM to about 17 μM. Fluo-4 fluorescence is then measured for 5 minutes. 0.1 mL KCl agonist dissolved in LTCC assay buffer is then added to the cells to produce a final concentration of 90 mM KCl, and fluorescence is measured for another 45 seconds. Data are collected over the entire time course and analyzed using Excel, Graph Pad Prism, or an in-house regression analysis software.
Alternative FLIPR Calcium Mobilization Assay for L-type Calcium Channel. Alternatively, the following cell line and procedure was used for the FLIPR calcium mobilization assay for L-type calcium channel. One day prior to performing this assay, differentiated A7r5 cells were trypsinized, then seeded on tissue culture treated 96-well clear-bottom black plates (Becton Dickinson, Franklin Lakes, N.J.) at a dilution of 1:1 from a confluent T150 cm^2 flask. On the day of the assay, the plates were washed with A7r5 wash buffer (127 mM NaCl, 2 mM MgCl2, 700 μM NaH2PO4, 5 mM CaCl2, 5 mM NaHCO3, 8 mM HEPES, 10 mM glucose, pH 7.4), then loaded with 0.1 mL of A7r5 wash buffer containing Fluo-4 (3 μM final concentration, Molecular Probes, Eugene, Oreg.). After 1 hour, the cells were washed with 0.1 mL A7r5 wash buffer and resuspended in 0.05 mL A7r5 assay buffer that was composed of A7r5 wash buffer plus 50 μM valinomycin (Sigma). Plates were then transferred to a FLIPR^96 for assay. The FLIPR measured basal Fluo-4 fluorescence for 15 seconds, then added 0.05 mL of each compound tested diluted in A7r5 assay buffer at final concentrations ranging from about 846 pM to about 17 μM. Fluo-4 fluorescence was then measured for 5 minutes. 0.1 mL KCl agonist dissolved in A7r5 assay buffer is then added to the cells to produce a final concentration of 90 mM KCl, and fluorescence was measured for another 45 seconds. Data were collected over the entire time course and analyzed using Excel, Graph Pad Prism, or an in-house regression analysis software.

Chain of N-type calcium channel (NTCC) (Q00975 whole entry): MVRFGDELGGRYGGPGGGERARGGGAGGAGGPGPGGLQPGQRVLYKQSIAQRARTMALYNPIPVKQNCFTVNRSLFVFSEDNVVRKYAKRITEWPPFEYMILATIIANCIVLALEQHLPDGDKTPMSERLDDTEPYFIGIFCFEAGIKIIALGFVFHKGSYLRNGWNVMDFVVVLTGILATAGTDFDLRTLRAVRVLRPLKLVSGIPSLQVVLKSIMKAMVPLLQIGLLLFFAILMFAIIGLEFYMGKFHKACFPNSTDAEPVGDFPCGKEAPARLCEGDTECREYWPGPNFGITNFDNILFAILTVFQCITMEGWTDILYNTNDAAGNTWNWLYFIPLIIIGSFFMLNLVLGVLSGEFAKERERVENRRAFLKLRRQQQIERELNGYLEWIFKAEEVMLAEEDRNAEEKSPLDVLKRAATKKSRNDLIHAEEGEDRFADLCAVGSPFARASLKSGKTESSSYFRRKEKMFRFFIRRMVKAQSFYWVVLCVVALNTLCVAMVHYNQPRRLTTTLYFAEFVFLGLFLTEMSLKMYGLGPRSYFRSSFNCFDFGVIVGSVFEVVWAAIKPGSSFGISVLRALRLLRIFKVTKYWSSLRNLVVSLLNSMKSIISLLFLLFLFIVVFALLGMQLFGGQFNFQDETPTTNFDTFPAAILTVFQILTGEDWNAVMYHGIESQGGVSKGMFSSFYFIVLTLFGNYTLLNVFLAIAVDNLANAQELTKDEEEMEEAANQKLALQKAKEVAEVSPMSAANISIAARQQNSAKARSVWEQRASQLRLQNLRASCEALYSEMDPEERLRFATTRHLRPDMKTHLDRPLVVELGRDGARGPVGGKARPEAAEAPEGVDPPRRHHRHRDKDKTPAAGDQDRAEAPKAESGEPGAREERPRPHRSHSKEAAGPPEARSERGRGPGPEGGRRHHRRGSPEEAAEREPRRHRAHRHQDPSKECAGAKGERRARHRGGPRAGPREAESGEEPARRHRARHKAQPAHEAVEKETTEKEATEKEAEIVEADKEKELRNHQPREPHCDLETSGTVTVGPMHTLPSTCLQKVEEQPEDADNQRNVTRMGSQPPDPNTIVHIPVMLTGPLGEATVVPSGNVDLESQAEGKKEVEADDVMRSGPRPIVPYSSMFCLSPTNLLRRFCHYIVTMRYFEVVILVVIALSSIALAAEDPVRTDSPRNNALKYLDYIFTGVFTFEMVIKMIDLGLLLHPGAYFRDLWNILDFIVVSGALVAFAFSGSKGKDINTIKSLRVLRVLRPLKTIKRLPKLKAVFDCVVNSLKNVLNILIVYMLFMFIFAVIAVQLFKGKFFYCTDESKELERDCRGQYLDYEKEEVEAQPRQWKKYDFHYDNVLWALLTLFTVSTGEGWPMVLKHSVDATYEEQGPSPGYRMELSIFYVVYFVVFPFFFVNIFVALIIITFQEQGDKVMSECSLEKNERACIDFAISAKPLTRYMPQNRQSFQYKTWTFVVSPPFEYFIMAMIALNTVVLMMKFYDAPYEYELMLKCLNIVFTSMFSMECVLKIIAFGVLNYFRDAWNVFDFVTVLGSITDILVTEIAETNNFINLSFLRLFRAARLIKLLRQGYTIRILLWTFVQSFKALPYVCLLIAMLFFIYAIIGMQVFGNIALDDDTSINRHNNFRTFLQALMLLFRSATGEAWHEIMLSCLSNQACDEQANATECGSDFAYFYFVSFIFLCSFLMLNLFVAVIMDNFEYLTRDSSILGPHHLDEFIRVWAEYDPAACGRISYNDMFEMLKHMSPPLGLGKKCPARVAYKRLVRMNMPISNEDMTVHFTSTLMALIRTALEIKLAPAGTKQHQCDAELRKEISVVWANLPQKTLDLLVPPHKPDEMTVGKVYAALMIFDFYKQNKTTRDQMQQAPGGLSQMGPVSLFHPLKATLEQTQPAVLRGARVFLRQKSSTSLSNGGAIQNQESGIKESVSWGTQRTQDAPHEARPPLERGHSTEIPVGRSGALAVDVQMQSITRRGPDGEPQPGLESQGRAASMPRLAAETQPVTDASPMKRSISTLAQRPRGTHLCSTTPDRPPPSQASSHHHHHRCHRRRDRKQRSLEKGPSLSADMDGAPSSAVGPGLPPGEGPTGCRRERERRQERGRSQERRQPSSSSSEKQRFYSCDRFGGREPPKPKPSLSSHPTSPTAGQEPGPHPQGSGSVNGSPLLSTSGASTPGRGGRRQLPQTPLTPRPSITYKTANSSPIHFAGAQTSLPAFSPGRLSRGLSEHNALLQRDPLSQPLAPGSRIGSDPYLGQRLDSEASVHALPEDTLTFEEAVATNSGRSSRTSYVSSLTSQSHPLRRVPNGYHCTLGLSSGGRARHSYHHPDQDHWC
Chain of N-type calcium channel (NTCC) (P54289 25-956 partner limits assumed): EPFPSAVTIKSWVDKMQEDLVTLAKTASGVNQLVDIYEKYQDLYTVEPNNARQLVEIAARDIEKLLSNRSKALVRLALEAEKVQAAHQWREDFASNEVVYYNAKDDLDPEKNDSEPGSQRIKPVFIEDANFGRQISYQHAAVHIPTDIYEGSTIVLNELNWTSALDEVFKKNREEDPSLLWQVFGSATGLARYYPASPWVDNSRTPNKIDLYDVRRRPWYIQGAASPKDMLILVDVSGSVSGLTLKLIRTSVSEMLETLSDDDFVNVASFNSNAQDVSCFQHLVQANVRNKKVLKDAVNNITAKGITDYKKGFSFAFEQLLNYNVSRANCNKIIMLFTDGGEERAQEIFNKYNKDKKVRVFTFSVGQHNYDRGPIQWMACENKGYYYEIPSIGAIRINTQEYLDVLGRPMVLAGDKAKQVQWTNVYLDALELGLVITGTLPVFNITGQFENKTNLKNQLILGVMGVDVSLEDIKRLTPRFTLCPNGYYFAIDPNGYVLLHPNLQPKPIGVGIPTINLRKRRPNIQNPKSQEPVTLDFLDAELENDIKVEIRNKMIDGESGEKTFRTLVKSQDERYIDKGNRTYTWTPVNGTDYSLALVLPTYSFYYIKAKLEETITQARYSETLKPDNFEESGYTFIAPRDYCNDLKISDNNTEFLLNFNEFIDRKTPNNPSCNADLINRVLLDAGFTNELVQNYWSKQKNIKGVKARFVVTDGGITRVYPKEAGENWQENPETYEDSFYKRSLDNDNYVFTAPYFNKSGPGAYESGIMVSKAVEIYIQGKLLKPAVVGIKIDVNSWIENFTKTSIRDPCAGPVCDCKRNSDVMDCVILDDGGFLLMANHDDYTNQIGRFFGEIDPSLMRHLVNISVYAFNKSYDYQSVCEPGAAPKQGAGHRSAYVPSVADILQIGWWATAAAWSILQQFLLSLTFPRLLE
Chain of N-type calcium channel (NTCC) (P54289 957-1103 partner limits assumed): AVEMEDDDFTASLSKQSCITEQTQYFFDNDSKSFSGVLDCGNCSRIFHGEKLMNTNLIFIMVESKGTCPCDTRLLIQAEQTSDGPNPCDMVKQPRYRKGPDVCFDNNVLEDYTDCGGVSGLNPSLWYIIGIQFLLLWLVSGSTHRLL
Chain of N-type calcium channel (NTCC) (Q02641 whole entry partner): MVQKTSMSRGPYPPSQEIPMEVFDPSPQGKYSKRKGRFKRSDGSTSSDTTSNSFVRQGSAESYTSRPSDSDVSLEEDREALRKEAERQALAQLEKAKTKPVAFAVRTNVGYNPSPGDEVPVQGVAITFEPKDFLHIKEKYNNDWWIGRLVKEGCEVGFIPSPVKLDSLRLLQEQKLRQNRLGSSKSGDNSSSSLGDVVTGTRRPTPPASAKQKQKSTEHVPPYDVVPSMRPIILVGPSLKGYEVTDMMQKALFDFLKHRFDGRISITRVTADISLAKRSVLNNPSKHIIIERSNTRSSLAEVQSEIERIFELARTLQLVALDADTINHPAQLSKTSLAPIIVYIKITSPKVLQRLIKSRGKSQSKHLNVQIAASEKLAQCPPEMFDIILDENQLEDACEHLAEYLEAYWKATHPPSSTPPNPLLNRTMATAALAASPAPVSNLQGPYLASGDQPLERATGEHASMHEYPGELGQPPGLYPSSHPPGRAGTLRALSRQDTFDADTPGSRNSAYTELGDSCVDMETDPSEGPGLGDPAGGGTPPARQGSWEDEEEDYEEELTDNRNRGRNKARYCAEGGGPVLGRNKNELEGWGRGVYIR

pIC50 [1]	Compound	pIC50 [2]
5.19	O=C1OC2(CCN(C(=O)c3ccc(OCC(F)(F)F)nc3)CC2)c2ccccc21 [1,3-dihydro-1′-[6-(2,2,2-trifluoroethoxy)pyridin-3-ylcarbonyl]-spiro[isobenzofuran-1,4′-piperidine]-3-one]	–
5.38	COc1ccc(CN(C)C(CC(C)C)C(=O)N2CCC3(CC2)OC(=O)c2ccccc23)cc1 (centres unmarked) [1,3-dihydro-1′-{4-methyl-2-[N-methyl-N-(4-methoxybenzyl)amino]-pentanoyl}-spiro[isobenzofuran-1,4′-piperidine]-3-one]	–
4.70 to 5.00	O=C(CCC(c1ccc(F)cc1)c1ccc(F)cc1)N1CCC2(C=Cc3ccccc32)CC1 [Compound 34, 1-[4,4-bis(4-fluorophenyl)butanoyl]-spiro[piperidine-4,1′-indene]]	–
5.64	COc1ccc(C(=O)N2CCC3(C=Cc4ccccc43)CC2)cc1C(F)(F)F [1-(3-trifluoromethyl-4-methoxybenzoyl)-spiro[piperidine-4,1′-indene]]	5.24
5.45	O=C(CC(c1ccccc1)c1ccccc1)N1CCC2(C=Cc3ncccc32)CC1 [1-(3,3-diphenylpropanoyl)-spiro[piperidine-4,5′-cyclopenta[b]pyridine]]	–
5.16 and 4.70 to 5.00	COc1ccc(C(=O)N2CCC3(CC2)OC(=O)c2ccccc23)cc1C(F)(F)F [1,3-dihydro-1′-(4-methoxy-3-trifluoromethylbenzoyl)-spiro[isobenzofuran-1,4′-piperidine]-3-one]	–
5.25	O=C(N1CCc2cc(S(=O)(=O)N3CCC4(C=Cc5ncccc54)CC3)ccc2C1)C(F)(F)F [1-(N-trifluoromethylcarbonyl-1,2,3,4-tetrahydroisoquinolin-6-yl-sulfonyl)-spiro[piperidine-4,5′-cyclopenta[b]pyridine]]	–

Second part, the molecule before the results:

Compound	pIC50 [1]	pIC50 [2]
O=C1OC2(CCN(CCCN(c3ccc(F)cc3)c3ccc(F)cc3)CC2)c2ccccc21 [Compound 68, 1,3-Dihydro-1′-{3-[N,N-bis(4-fluorophenyl)amino]propyl}-spiro[isobenzofuran-1,4′-piperidine]-3-one]	6.64	< 4.70
Fc1ccc(C(CCCN2CCC3(CC2)OCc2ccccc23)c2ccc(F)cc2)cc1 [Compound 42, 1,3-Dihydro-1′-[4,4-bis(4-fluorophenyl)butyl]-spiro[isobenzofuran-1,4′-piperidine]]	5.92	5.59
COc1ccc(CN2CCC3(C=Cc4ncccc43)CC2)cc1C(F)(F)F [1-(4-methoxy-3-trifluoromethylbenzyl)-spiro[piperidine-4,5′-cyclopenta[b]pyridine]]	4.70 to 5.00	–
O=C(c1cc2ccccc2s1)N1CCC2(C=Cc3ncccc32)CC1 [1-(benzo[b]thiophen-2-ylcarbonyl)-spiro[piperidine-4,5′-cyclopenta[b]pyridine]]	4.70 to 5.00	–
O=C1OC2(CCN(CC(=O)N(c3ccc(F)cc3)c3ccc(F)cc3)CC2)c2ccccc21 [Compound 71, 1,3-Dihydro-1′-[N,N,-bis(4-fluorophenyl)aminocarbonylmethyl]-spiro[isobenzofuran-1,4′-piperidine]-3-one]	5.31	–
O=C1OC2(CCN(C(=O)CC(c3ccccc3)c3ccccc3)CC2)c2ccccc21 [1,3-dihydro-1′-(3,3-diphenylpropanoyl)-spiro[isobenzofuran-1,4′-piperidine]-3-one]	5.58	–
O=C1c2ccccc2C2(CCN(CCCC(c3ccc(F)cc3)c3ccc(F)cc3)CC2)N1Cc1ccccc1 [Compound 51, 2-Benzyl-2,3-dihydro-1′-[4,4-bis(4-fluorophenyl)butyl]-spiro[isoindole-1,4′-piperidine]-3-one]	6.26	5.19
O=C1OC2(CCN(CCCC(c3ccc(F)cc3)c3ccc(F)cc3)CC2)c2ccccc21 [Compound 12, 1,3-Dihydro-1′-[4,4-bis(4-fluorophenyl)butyl]-spiro[isobenzofuran-1,4′-piperidine]-3-one]	6.34	5.40
O=C(CCC(=O)N1CCC2(CC1)OC(=O)c1ccccc12)c1ccc(F)cc1 [1,3-dihydro-1′-[4-(4-fluorophenyl)-4-oxobutanoyl]-spiro[isobenzofuran-1,4′-piperidine]-3-one]	4.70 to 5.00	–
O=C(CC=C(c1ccc(F)cc1)c1ccc(F)cc1)N1CCC2(C=Cc3ccccc32)CC1 [Compound 33, 1-[4,4-bis(4-fluorophenyl)but-3-enoyl]-spiro[piperidine-4,1′-indene]]	5.25	–
O=C1OC2(CCN(C(=O)CC(=O)N(c3ccc(F)cc3)c3ccc(F)cc3)CC2)c2ccccc21 [Compound 75, 1,3-Dihydro-1′-{2-[N,N,-bis(4-fluorophenyl)aminocarbonyl]ethan-1-oyl}-spiro[isobenzofuran-1,4′-piperidine]-3-one]	5.24	–
COc1ccc(C(=O)N2CCC3(CC2)OC(=O)c2ccccc23)cn1 [1,3-dihydro-1′-(6-methoxypyridin-3-ylcarbonyl)-spiro[isobenzofuran-1,4′-piperidine]-3-one]	4.70 to 5.00	–
CC(C)CC(C(=O)N1CCC2(CC1)OC(=O)c1ccccc12)N(C)C(=O)OC(C)(C)C (centres unmarked) [1,3-dihydro-1′-[4-methyl-2-(N-methyl-N-tert-butoxycarbonylamino)pentanoyl]-spiro[isobenzofuran-1,4′-piperidine]-3-one]	4.98	–
O=C1OC2(CCN(CCC(=O)N(c3ccc(F)cc3)c3ccc(F)cc3)CC2)c2ccccc21 [1,3-dihydro-1′-{2-[N,N-bis(4-fluorophenyl)aminocarbonyl]ethyl}-spiro[isobenzofuran-1,4′-piperidine]-3-one]	5.79	–
